The source of these data is PubChem BioAssay (NCI).

Molecules are shown by their SMILES.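 Method: 48-hour compound exposure of cells in 96-well plates, five concentrations, linear interpolation of endpoints. GI50: concentration for 50% inhibition of growth. TGI denotes the concentration required for complete inhibition of growth.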

Among the test systems are HCT-116 colon; UACC-62 melanoma; SF-539 CNS; HOP-92 NSCLC; MDA-MB-231 breast; MALME-3M melanoma; T-47D breast; IGROV1 ovarian; SF-295 CNS; LOX IMVI melanoma.
What all share (assay): NCI tumour cell line growth inhibition, 48 h

Turning to `O=[N+]([O-])c1ccc(/C=C(/c2ccc([N+](=O)[O-])o2)S(=O)(=O)c2ccccc2)o1`, the TGI with HCT-116 colon was found to be 3.08 µM; in the assay on UACC-62 melanoma, 19.1 µM; with SF-539 CNS, 37.7 µM; in the assay with HOP-92 NSCLC, 27.8 µM; with MDA-MB-231 breast, 16.3 µM; with MALME-3M melanoma it was 7.45 µM. Besides, the TGI is more than 100 µM with T-47D breast, 30.6 µM in the assay with IGROV1 ovarian and 34.2 µM in the assay on SF-295 CNS.
Take `Cc1cc(C)c2c(SCc3ccc(Cl)cc3Cl)nc(N)nc2n1`: the TGI in the assay on HCT-116 colon was more than 100 µM; in the assay on UACC-62 melanoma, more than 100 µM; with LOX IMVI melanoma, more than 100 µM; with HOP-92 NSCLC it was 58.1 µM; with MDA-MB-231 breast, more than 100 µM; in the assay on MALME-3M melanoma, more than 100 µM. In addition, the values for the TGI in the assay on T-47D breast, in the assay with IGROV1 ovarian and in the assay with SF-295 CNS were 47 µM, more than 100 µM and more than 100 µM, respectively.
For the compound `CC(O)(CNS(=O)(=O)c1ccccc1)c1ccccc1` (configuration not stated), the TGI with HCT-116 colon, with UACC-62 melanoma, in the assay on LOX IMVI melanoma, with HOP-92 NSCLC, with MDA-MB-231 breast and with MALME-3M melanoma was more than 100 µM in each case. Further, the TGI with T-47D breast, with IGROV1 ovarian and in the assay with SF-295 CNS was more than 100 µM throughout.
In the case of `C/C1=C\C/C=C(\C)[C@H]2CC(CC/C(C)=C/CC1)[C@](C)(C=O)O2`, the GI50 with HCT-116 colon was 6.03 µM; in the assay on UACC-62 melanoma it was more than 100 µM; in the assay with LOX IMVI melanoma, 22.2 µM; in the assay with SF-539 CNS, more than 100 µM; in the assay on HOP-92 NSCLC, 39.8 µM; in the assay with MDA-MB-231 breast it was more than 100 µM. Besides, the GI50 in the assay with T-47D breast was more than 100 µM; with IGROV1 ovarian it was 18.2 µM; with SF-295 CNS, 28.9 µM. In addition, the TGI was more than 100 µM in the assay on HCT-116 colon; more than 100 µM with UACC-62 melanoma; 48.5 µM in the assay on LOX IMVI melanoma; more than 100 µM with SF-539 CNS; more than 100 µM in the assay with HOP-92 NSCLC; more than 100 µM in the assay on MDA-MB-231 breast. Further, the figures for the TGI in the assay with T-47D breast, in the assay with IGROV1 ovarian and in the assay with SF-295 CNS were more than 100 µM, more than 100 µM and 96.2 µM, respectively.
On to `OCC#Cc1ccccc1C#Cc1ccc(C#Cc2ccccc2C#CCO)s1`, for which the GI50 is 24.2 µM in the assay with HCT-116 colon; 19.5 µM in the assay on UACC-62 melanoma; 20.4 µM in the assay on LOX IMVI melanoma; 18.1 µM in the assay with SF-539 CNS; 15.6 µM in the assay with HOP-92 NSCLC; 18.9 µM with MDA-MB-231 breast. The GI50 in the assay with T-47D breast was 17.3 µM; in the assay on IGROV1 ovarian, 13.7 µM; in the assay with SF-295 CNS, 15.1 µM. The TGI came to 50.1 µM in the assay on HCT-116 colon; 43.4 µM with UACC-62 melanoma; 53.6 µM in the assay on LOX IMVI melanoma; 34.2 µM in the assay on SF-539 CNS; 29.7 µM with HOP-92 NSCLC; 53.5 µM with MDA-MB-231 breast. Also, the TGI was 53.8 µM in the assay with T-47D breast, 34.2 µM in the assay on IGROV1 ovarian and 29.2 µM with SF-295 CNS.
On to `Cc1ccc2c(c1)O/C(=C\c1ccc([N+](=O)[O-])o1)C2=O`, for which the GI50 is 0.373 µM in the assay on HCT-116 colon; 1.6 µM in the assay with UACC-62 melanoma; 1.47 µM in the assay with LOX IMVI melanoma; 1.14 µM in the assay with HOP-92 NSCLC; 1.36 µM in the assay on MDA-MB-231 breast; 2.42 µM with MALME-3M melanoma. Besides, the GI50 in the assay with T-47D breast was 1.86 µM; in the assay with IGROV1 ovarian, 1.42 µM; in the assay with SF-295 CNS, 2.42 µM. For the same compound, the TGI worked out at 1.32 µM in the assay on HCT-116 colon; 3.5 µM with UACC-62 melanoma; 3.1 µM in the assay with LOX IMVI melanoma; 2.76 µM with HOP-92 NSCLC; 3.27 µM in the assay on MDA-MB-231 breast; 4.6 µM in the assay with MALME-3M melanoma. The figures for the TGI in the assay on T-47D breast, in the assay with IGROV1 ovarian and in the assay on SF-295 CNS were 4.77 µM, 4.69 µM and 7.06 µM, respectively.
Consider `CC1SC(c2c(Cl)cccc2Cl)N(NC(=O)C(O)c2ccccc2)C1=O` (configuration not stated), for which the GI50 in the assay on HCT-116 colon was 56 µM; in the assay on UACC-62 melanoma, 50.2 µM; in the assay with LOX IMVI melanoma it was 60.7 µM; with SF-539 CNS it was more than 100 µM; with HOP-92 NSCLC, 57.8 µM; in the assay on MDA-MB-231 breast, 31.6 µM. In addition, the GI50 is 48.2 µM in the assay on T-47D breast, 62.9 µM with IGROV1 ovarian and more than 100 µM in the assay with SF-295 CNS. Further, the TGI in the assay on HCT-116 colon, with UACC-62 melanoma, in the assay on LOX IMVI melanoma, in the assay on SF-539 CNS, in the assay on HOP-92 NSCLC and in the assay on MDA-MB-231 breast was more than 100 µM each time. Further, the TGI with T-47D breast, in the assay on IGROV1 ovarian and in the assay with SF-295 CNS was more than 100 µM throughout.
For the compound `C=CCC(N[C@H](CO)c1ccccc1)c1cn(S(=O)(=O)c2ccc(C)cc2)c2ccccc12` (some centres not stated), the GI50 was 17 µM in the assay on HCT-116 colon; 15.1 µM in the assay on UACC-62 melanoma; 13.7 µM in the assay with LOX IMVI melanoma; 21.4 µM in the assay on SF-539 CNS; 24.9 µM in the assay on HOP-92 NSCLC; 10.7 µM in the assay with MDA-MB-231 breast. Also, the results for the GI50 with T-47D breast, in the assay on IGROV1 ovarian and in the assay with SF-295 CNS were 55.9 µM, 14.6 µM and 8.19 µM, respectively. In addition, the TGI with HCT-116 colon was 31.6 µM; in the assay with UACC-62 melanoma, 29.7 µM; in the assay with LOX IMVI melanoma, 27 µM; in the assay with SF-539 CNS it was 38.2 µM; in the assay with HOP-92 NSCLC it was more than 100 µM; with MDA-MB-231 breast, 32.3 µM. Moreover, the TGI was more than 100 µM with T-47D breast, 47.3 µM in the assay on IGROV1 ovarian and 34.8 µM with SF-295 CNS.
Consider `O=C(NNS(=O)(=O)c1ccc(F)cc1)c1cccnc1Nc1ccc(Cl)cc1Cl`, for which the GI50 in the assay on HCT-116 colon is 30.3 µM; in the assay with UACC-62 melanoma, 46 µM; in the assay on LOX IMVI melanoma it was 32.1 µM; with SF-539 CNS, 26 µM; in the assay on HOP-92 NSCLC, 15.4 µM; in the assay with MDA-MB-231 breast, 28.8 µM. In addition, the values for the GI50 with MALME-3M melanoma, with T-47D breast and in the assay with SF-295 CNS were 34.7 µM, 18.7 µM and 36.9 µM, respectively. Moreover, the TGI in the assay with HCT-116 colon was more than 100 µM; with UACC-62 melanoma, more than 100 µM; with LOX IMVI melanoma, more than 100 µM; with SF-539 CNS, 73.7 µM; in the assay on HOP-92 NSCLC, 36.1 µM; with MDA-MB-231 breast, more than 100 µM. The TGI in the assay on MALME-3M melanoma was more than 100 µM; in the assay with T-47D breast it was 98.1 µM; with SF-295 CNS, more than 100 µM.
For `NCCP(=O)(O)O`, the TGI in the assay on HCT-116 colon, in the assay with UACC-62 melanoma, with LOX IMVI melanoma, in the assay with HOP-92 NSCLC, in the assay on MDA-MB-231 breast and with MALME-3M melanoma was more than 100 µM throughout. Besides, the TGI in the assay on T-47D breast, in the assay on IGROV1 ovarian and in the assay on SF-295 CNS was more than 100 µM in each case.
Regarding `O=C(Nc1ccccc1O)c1ccc(CNC(=O)c2sccc2Nc2ccnc(C(F)(F)F)c2)cc1`, the GI50 is 4.61 µM in the assay with HCT-116 colon; 4.13 µM in the assay with UACC-62 melanoma; 5.51 µM with LOX IMVI melanoma; 3.56 µM in the assay on SF-539 CNS; 9.05 µM with MDA-MB-231 breast; 2.5 µM in the assay with MALME-3M melanoma. Also, the results for the GI50 with T-47D breast, in the assay with IGROV1 ovarian and in the assay on SF-295 CNS were 3.45 µM, 14 µM and 8.33 µM, respectively. In addition, the TGI amounted to 15.2 µM with HCT-116 colon; 20 µM with UACC-62 melanoma; 18.9 µM with LOX IMVI melanoma; 31.8 µM in the assay with SF-539 CNS; 27.4 µM in the assay with MDA-MB-231 breast; 21.5 µM in the assay with MALME-3M melanoma. Besides, the TGI with T-47D breast turned out to be 29.9 µM; in the assay with IGROV1 ovarian, 32.7 µM; in the assay on SF-295 CNS it was 21.8 µM.
`COc1ccc2c(c1)cn1c3ccc(O)cc3[nH]c(=O)c21`: the GI50 in the assay with HCT-116 colon was 0.0567 µM; with UACC-62 melanoma, 0.151 µM; with LOX IMVI melanoma it was 0.072 µM; in the assay on SF-539 CNS it was 0.175 µM; in the assay with HOP-92 NSCLC it was 2.53 µM; in the assay with MDA-MB-231 breast it was 0.469 µM. Moreover, the GI50 was 0.487 µM with T-47D breast, 0.338 µM in the assay with IGROV1 ovarian and 0.248 µM with SF-295 CNS. In addition, the TGI with HCT-116 colon came to 1.61 µM; in the assay with UACC-62 melanoma it was 6.02 µM; in the assay on LOX IMVI melanoma, 1.96 µM; in the assay with SF-539 CNS, 1.16 µM; with HOP-92 NSCLC, 18.2 µM; with MDA-MB-231 breast it was 2.47 µM. For the same compound, the TGI in the assay on T-47D breast was 2.37 µM; with IGROV1 ovarian, 4.77 µM; in the assay with SF-295 CNS, 3.52 µM.
Consider `COc1ccc(/C=C(/C)[N+](=O)[O-])cc1`, for which the TGI in the assay with HCT-116 colon was 3.14 µM; in the assay on UACC-62 melanoma, 3.29 µM; in the assay with SF-539 CNS, 3.68 µM; with HOP-92 NSCLC, 5.66 µM; in the assay on MDA-MB-231 breast it was 9.89 µM; in the assay with MALME-3M melanoma, 4.59 µM. Further, the TGI with T-47D breast was more than 100 µM; with IGROV1 ovarian, 6.2 µM; in the assay with SF-295 CNS, 19 µM.
As to `O=C(Nc1cccc(O)c1)c1cccc(NC2=C(Cl)C(=O)N(Cc3ccccc3)C2=O)c1`, the GI50 in the assay with HCT-116 colon is 18.1 µM; with UACC-62 melanoma it was 14.6 µM; in the assay on LOX IMVI melanoma, 11.1 µM; with SF-539 CNS it was 3.57 µM; in the assay with HOP-92 NSCLC, 11.7 µM; in the assay on MDA-MB-231 breast it was 11.9 µM. Further, the GI50 is 23.5 µM in the assay with T-47D breast, 1.19 µM in the assay on IGROV1 ovarian and 6.39 µM with SF-295 CNS. Moreover, the TGI in the assay with HCT-116 colon is 32 µM; with UACC-62 melanoma, 28.1 µM; in the assay on LOX IMVI melanoma, 23.1 µM; in the assay with SF-539 CNS, 15.6 µM; in the assay with HOP-92 NSCLC, 29.4 µM; with MDA-MB-231 breast it was 31.9 µM. For the same compound, the figures for the TGI in the assay on T-47D breast, in the assay on IGROV1 ovarian and in the assay on SF-295 CNS were 60.5 µM, 6.11 µM and 21.3 µM, respectively.
